Results on 20 compounds are retold here after patent US9982260B2, “Identification of structurally similar small molecules that enhance therapeutic exon skipping” (The Regents of the University of California, priority 2013, dated 2018).

Each structure is given as a SMILES string. Structures can show the parent of a compound that is named as a salt.

This experiment deals with human exon-50 DMD GFP reporter (ex50GFP). Kind of experiment: High-throughput screen in the Ex50GFP reporter cell line (C2C12 myoblasts, Prestwick library). The following applies: for Z Score, ratio of +AO/C ('Compound + AO' compared to 'Compound only') / Z Score, 'Compound only' screen: 10 μM compound; for Z Score, ratio of +AO/C ('Compound + AO' compared to 'Compound only'): +AO fluorescence divided by 2.52 and by 'Compound only' fluorescence; for Z Score, 'Compound + AO' screen: 10 μM compound after 300 nM h50AON; for Z Score, 'Compound + AO' screen / Z Score, 'Compound only' screen: GFP fluorescence after 48 h vs DMSO controls; for Z Score, 'Compound only' screen: no AO.

Take `CNc1ncnc2c1ncn2[C@@H]1O[C@H](CO)[C@@H](O)[C@H]1O` [N6-methyladenosine]: the “Z Score, ratio of +AO/C ('Compound + AO' compared to 'Compound only')” value (“Z Score, ratio of +AO/C” for short) is on record as 3.70.
Take `O=C(Nc1ccc([N+](=O)[O-])cc1Cl)c1cc(Cl)ccc1O` [Niclosamide]: the “Z Score, 'Compound + AO' screen” value stood at 3.37 and the “Z Score, 'Compound only' screen” value is 9.59.
For the compound `Cc1nccn1CC1CCc2c(c3ccccc3n2C)C1=O` (stereo not shown) [Ondansetron Hydrochloride], the “Z Score, ratio of +AO/C” value came to 3.25.
For the compound `CN(C(=O)CN(CCO)CC(=O)N(C)C(C)(C)Cc1ccccc1)C(C)(C)Cc1ccccc1` [Oxethazaine], the “Z Score, 'Compound + AO' screen” value was 4.98.
`Cc1ccc(N(CC2=NCCN2)c2cccc(O)c2)cc1` [Phentolamine hydrochloride]: the “Z Score, ratio of +AO/C” value was 2.63.
Consider `CC[N+]1(C)CCCC(OC(=O)C(O)(c2ccccc2)c2ccccc2)C1` (stereo not shown) [Pipenzolate bromide], for which the “Z Score, ratio of +AO/C” value is on record as 2.74.
With `CC(C)(Sc1cc(C(C)(C)C)c(O)c(C(C)(C)C)c1)Sc1cc(C(C)(C)C)c(O)c(C(C)(C)C)c1` [Probucol], the “Z Score, ratio of +AO/C” value is 3.92.
Regarding `CCN(CC)CCNC(=O)c1ccc(N)cc1` [Procainamide hydrochloride], the “Z Score, ratio of +AO/C” value amounted to 2.67.
Same read-out and setting: as for `CCCOc1cc(N)ccc1C(=O)OCCN(CC)CC` [Propoxycaine hydrochloride], the figure is 3.05.
Regarding `CCc1nc(N)nc(N)c1-c1ccc(Cl)cc1` [Pyrimethamine], the “Z Score, 'Compound only' screen” value was 7.44.
As to `CCN(CC)CCCC(C)Nc1c2ccc(Cl)cc2nc2ccc(OC)cc12` (stereo not shown) [Quinacrine dihydrochloride dihydrate], the “Z Score, 'Compound + AO' screen” value turned out to be 12.60 and the “Z Score, 'Compound only' screen” value was 19.06.
As for `COC(=O)[C@H]1[C@H]2C[C@@H]3c4[nH]c5cc(OC)ccc5c4CCN3C[C@H]2C[C@@H](OC(=O)c2cc(OC)c(OC)c(OC)c2)[C@@H]1OC` [Reserpine], the “Z Score, 'Compound + AO' screen” value is 3.66 and the “Z Score, 'Compound only' screen” value was 5.63.
As for `COc1ccc2c3c([nH]c2c1)[C@H]1C[C@H]2[C@H](C[C@@H](O)[C@H](OC)[C@H]2C(=O)O)CN1CC3.Cl` [Reserpinic acid hydrochloride], the “Z Score, 'Compound + AO' screen” value came out at 4.86.
As to `CCN(CC)C(=O)N[C@H]1C[C@@H]2c3cccc4[nH]cc(c34)C[C@H]2N(C)C1` [S(+)-Terguride], the “Z Score, 'Compound + AO' screen” value is on record as 4.08 and the “Z Score, 'Compound only' screen” value is reported as 5.92.
For the compound `O=C(O)CCC(=O)Nc1ccc(S(=O)(=O)Nc2nccs2)cc1` [Succinylsulfathiazole], the “Z Score, ratio of +AO/C” value stood at 3.38.
With `O=C(O)c1cc(/N=N/c2ccc(S(=O)(=O)Nc3ccccn3)cc2)ccc1O` [Sulfasalazine], the “Z Score, ratio of +AO/C” value was determined as 3.04.
With `COC(=O)C1=CO[C@@H](C)[C@@H]2CN3CCc4c([nH]c5ccccc45)[C@@H]3C[C@H]12` [Tetrahydroalstonine], the “Z Score, 'Compound + AO' screen” value is recorded as 6.56 and the “Z Score, 'Compound only' screen” value came out at 6.47.
With `c1ccc(C2CN3CCSC3=N2)cc1` (stereo not shown) [Tetramisole hydrochloride], the “Z Score, ratio of +AO/C” value is listed as 2.77.
`Cc1c(C)c2c(c(C)c1O)CC[C@@](C)(CCC[C@H](C)CCC[C@H](C)CCCC(C)C)O2` [Tocopherol (R,S)]: the “Z Score, ratio of +AO/C” value stood at 2.67.
Turning to `COc1cc(-c2ccc(=O)[nH]n2)ccc1OC(F)F` [Zardaverine], the “Z Score, 'Compound + AO' screen” value amounted to 3.69.
